According to patent publication US5399697A, “N,N',N'-trisubstituted-5-bisaminomethylene-1,3-dioxane-4,6-dione inhibitors of acyl-CoA:cholesterol-acyl transferase” (American Home Products Corporation, priority 1993, dated 1995):
Read-outs that look alike come from different tables or passages of the source.

Test system: acyl-coenzyme A: cholesterol acyltransferase
Experiment: Inhibition of ACAT / intracellular cholesterol esterification in vitro (procedure of Ross et al.)
Type: cell-based

CN(C(Nc1cc(C(C)(C)C)c(O)c(C(C)(C)C)c1)=C1C(=O)OC(C)(C)OC1=O)c1ccccn1 [Compound 83]
% Inhibition (50 μM): 86%

CCCCCCCN(Cc1ccc(OCCC(C)C)cc1)C(Nc1cc(OC)c(OC)c(OC)c1)=C1C(=O)OC(C)(C)OC1=O [Compound 23]
% Inhibition (25 μM): 85% | IC50 (read-out: IC50): 3.5 µM

CCCCc1ccc(CN(C(Nc2ccc(OC)cc2OC)=C2C(=O)OC(C)(C)OC2=O)C(C)CCCC(C)(C)O)cc1 (stereo not drawn) [Compound 44, 5-[[[(4-Butylphenyl)methyl](5-hydroxy-1,5-dimethylhexyl)amino][(2,4-dimethoxyphenyl)-amino]methylene]-2,2-dimethyl-1,3-dioxane-4,6-dione]
% Inhibition (25 μM): 82% | IC50 (read-out: IC50): 15 µM

CCCCCCCN(Cc1ccc(CCCCCC)cc1)C(Nc1ccc(F)cc1F)=C1C(=O)OC(C)(C)OC1=O [Compound 18, 5-[[(2,4-Difluorophenyl)amino][[(4-hexylphenyl)methyl]heptylamino]methylene]-2,2-dimethyl-1,3-dioxane-4,6-dione]
% Inhibition (50 μM): 60%

CCCCCCCN(Cc1ccc(CCCCC)cc1)C(Nc1ccc(C(F)(F)F)cc1)=C1C(=O)OC(C)(C)OC1=O [Compound 17, 5-[[[4-(Trifluoromethyl)phenyl]amino][heptyl[(4-pentylphenyl)methyl]amino]methylene]-2,2-dimethyl-1,3-dioxane-4,6-dione]
% Inhibition (25 μM): 72%

CCCCCCCN(Cc1ccc(C(C)(C)C)cc1)C(Nc1ccc(OCCCC)cc1)=C1C(=O)OC(C)(C)OC1=O [Compound 19]
% Inhibition (25 μM): 98% | IC50 (read-out: IC50): 2.4 µM

CCCCCCCN(Cc1ccc(C(C)(C)C)cc1)C(Nc1cc(OC)c(OC)c(OC)c1)=C1C(=O)OC(C)(C)OC1=O [Compound 69]
% Inhibition (25 μM): 98% | IC50 (read-out: IC50): 2.8 µM

CC(C)Cc1ccc(CN(C(Nc2ccc(N(C)C)cc2)=C2C(=O)OC(C)(C)OC2=O)C2CCN(Cc3ccccc3)CC2)cc1 [Compound 49, 5-[[[4-(Dimethylamino)phenyl]amino][[[4-(2-methylpropyl)phenyl]methyl][1-(phenylmethyl)-4-piperidinyl]amino]methylene]-2,2-dimethyl-1,3-dioxane-4,6-dione]
% Inhibition (25 μM): 80% | IC50 (read-out: IC50): 4.5 µM

CCCCCCCN(Cc1ccc(C(C)(C)C)cc1)C(Nc1ccc(OCCCCCC)cc1)=C1C(=O)OC(C)(C)OC1=O [Compound 25, 5-[[[[4-(1,1-Dimethylethyl)phenyl]methyl]heptylamino][[4-(hexyloxy)phenyl]amino]methylene]2,2-dimethyl-3-dioxane-4,6-dione]
% Inhibition (25 μM): 94% | IC50 (read-out: IC50): 0.5 µM

COc1ccc(NC(=C2C(=O)OC(C)(C)OC2=O)N(Cc2ccc(CC(C)C)cc2)C(C)CN2CCOCC2)c(OC)c1 (stereo not drawn) [Compound 50, 5-[[(2,4-Dimethoxyphenyl)amino][[1-methyl-2-(4-morpholinyl)ethyl][[4-(2-methylpropyl)-phenyl]methyl]amino]methylene]-2,2-dimethyl-1,3-dioxane-4,6-dione]
% Inhibition (25 μM): 74%

COc1ccc(NC(=C2C(=O)OC(C)(C)OC2=O)N(Cc2ccc(CC(C)C)cc2)[C@@H](CO[Si](C)(C)C(C)(C)C)CC(C)C)c(OC)c1 [Compound 71]
IC50: 0.53 µM | % Inhibition (25 μM): 97%

CCCCCC(C)N(Cc1ccc(CCC(C)C)cc1)C(Nc1ccc(N(C)C)cc1C)=C1C(=O)OC(C)(C)OC1=O (stereo not drawn) [Compound 61]
% Inhibition (25 μM): 98% | IC50 (read-out: IC50): 0.16 µM

CCCCCC(C)N(Cc1ccc(CC(C)C)cc1)C(Nc1cc(C(C)(C)C)c(O)c(C(C)(C)C)c1)=C1C(=O)OC(C)(C)OC1=O (stereo not drawn) [Compound 13]
% Inhibition (25 μM): 99% | IC50 (read-out: IC50): 0.19 µM

CCCCCCN(CCCCCC)C(Nc1ccc(F)cc1)=C1C(=O)OC(C)(C)OC1=O [Compound 3, 5-[(Dihexylamino)[(4-fluorophenyl)amino]methylene]-2,2-dimethyl-1,3-dioxane-4,6-dione]
% Inhibition (50 μM): 77% | IC50 (read-out: IC50): 9 µM

CC1(C)OC(=O)C(=C(Nc2cccnc2)Nc2cc(C(C)(C)C)c(O)c(C(C)(C)C)c2)C(=O)O1 [Compound 82]
% Inhibition (50 μM): 94%

CCCCCC(C)N(Cc1ccc(C(C)(C)C)cc1)C(Nc1cc(OC)c(OC)c(OC)c1)=C1C(=O)OC(C)(C)OC1=O (stereo not drawn) [Compound 20]
% Inhibition (25 μM): 96% | IC50 (read-out: IC50): 0.77 µM

CCCCCC(C)N(Cc1ccc(CCC(C)C)cc1)C(Nc1ccc(OC)cc1OC)=C1C(=O)OC(C)(C)OC1=O (stereo not drawn) [Compound 56, 5-[[(2,4-Dimethoxyphenyl)amino][[[4-(3-methylbutyl)phenyl]methyl](1-methylhexyl)amino]-methylene]-2,2-dimethyl-1,3-dioxane-4,6-dione]
% Inhibition (25 μM): 97% | IC50 (read-out: IC50): 1.4 µM

CCCCCC(C)N(Cc1ccc(OCC(C)C)cc1)C(Nc1ccc(C)cc1C)=C1C(=O)OC(C)(C)OC1=O (stereo not drawn) [Compound 68]
% Inhibition (25 μM): 98% | IC50 (read-out: IC50): 0.28 µM

CCCCCCCN(Cc1ccc(C(C)(C)C)cc1)C(Nc1ccc(F)cc1F)=C1C(=O)OC(C)(C)OC1=O [Compound 15]
% Inhibition (50 μM): 63%

CCCCCCCN(Cc1ccc(C(C)(C)C)cc1)C(Nc1ccc(F)cc1)=C1C(=O)OC(C)(C)OC1=O [Compound 67]
% Inhibition (50 μM): 89% | IC50 (read-out: IC50): 4.5 µM

CCCCC(CC)N(Cc1ccc(CC(C)(C)C)cc1)C(Nc1ccc(OC)cc1OC)=C1C(=O)OC(C)(C)OC1=O (stereo not drawn) [Compound 60, 5-[[(2,4-Dimethoxyphenyl)amino][[[4-(2,2-dimethylpropyl)phenyl]methyl](1-ethylpentyl)amino]-methylene]-2,2-dimethyl-1,3-dioxane-4,6-dione]
% Inhibition (25 μM): 99% | IC50 (read-out: IC50): 0.54 µM

CCCCCCCN(Cc1ccc(C(C)(C)C)cc1)C(Nc1ccc(OCCCCC)cc1)=C1C(=O)OC(C)(C)OC1=O [Compound 24]
% Inhibition (25 μM): 96% | IC50 (read-out: IC50): 2.3 µM

COc1ccc(NC(NCC2(c3ccccc3)CCCC2)=C2C(=O)OC(C)(C)OC2=O)c(OC)c1 [Compound 9, 5-[[(2,4-Dimethoxyphenyl)amino][[(1-phenylcyclopentyl)methyl]amino]methylene]-2,2-dimethyl-1,3-dioxane-4,6-dione]
% Inhibition (25 μM): 98% | IC50 (read-out: IC50): 5.6 µM

CCCCCCN(CCCCCC)C(Nc1ccc(OC)cc1OC)=C1C(=O)OC(C)(C)OC1=O [Compound 1, 5-[(Dihexylamino)[(2,4-dimethoxyphenyl)amino]methylene]-2,2-dimethyl-1,3-dioxane-4,6-dione]
% Inhibition (50 μM): 65%

CCCCCC(C)N(Cc1ccc(CC(C)(C)C)cc1)C(Nc1ccc(C)cc1C)=C1C(=O)OC(C)(C)OC1=O (stereo not drawn) [Compound 64]
% Inhibition (25 μM): 99% | IC50 (read-out: IC50): 0.49 µM

COc1ccc(NC(=C2C(=O)OC(C)(C)OC2=O)N(Cc2ccc(CC(C)C)cc2)[C@@H](CO)CC(C)C)c(OC)c1 [Compound 74, (R)-5-[[(2,4-Dimethoxyphenyl)amino][[1-(hydroxymethyl)-3-methylbutyl][[4-(2-methylpropyl)-phenyl]methyl]amino]methylene]-2,2-dimethyl-1,3-dioxane-4,6,-dione]
% Inhibition (concentration not given): 97% | IC50 (read-out: IC50): 0.29 µM

CCCCCC(C)N(Cc1ccc(OCC(C)C)cc1)C(Nc1ccc(OC)cc1OC)=C1C(=O)OC(C)(C)OC1=O (stereo not drawn) [Compound 58, 5-[[(2,4-Dimethoxyphenyl)amino][(1-methylhexyl)[[4-(2-methylpropoxy)phenyl]methyl]-amino]methylene]-2,2-dimethyl-1,3-dioxane-4,6-dione]
% Inhibition (25 μM): 99% | IC50 (read-out: IC50): 0.55 µM

COc1ccc(NC(=C2C(=O)OC(C)(C)OC2=O)N(Cc2ccc(CC(C)C)cc2)[C@@H](CO[Si](C)(C)C(C)(C)C)Cc2ccccc2)c(OC)c1 [Compound 11]
IC50: 2.8 µM | % Inhibition (25 μM): 98%

CC(C)CCc1ccc(CN(C(Nc2ccc(N(C)C)cc2)=C2C(=O)OC(C)(C)OC2=O)C(CC(C)C)CC(C)C)cc1 [Compound 73, 5-[[[4-(Dimethylamino)phenyl]amino][[[4-(3-methylbutyl)phenyl]methyl][3-methyl-1-(2-methylpropyl)butyl]amino]methylene]-2,2-dimethyl-1,3-dioxane-4,6-dione]
% Inhibition (25 μM): 97% | IC50 (read-out: IC50): 1.3 µM

COc1ccc(NC(=C2C(=O)OC(C)(C)OC2=O)N(Cc2ccc(CCC(C)C)cc2)C(CC(C)C)CC(C)C)c(OC)c1 [Compound 72, 5-[[(2,4-Dimethoxyphenyl)amino][[[4-(3-methylbutyl)phenyl]methyl][-3-methyl-1-(2-methylpropyl)butyl]amino]methylene]-2,2-dimethyl-1,3-dioxane-4,6-dione]
% Inhibition (25 μM): 98% | IC50 (read-out: IC50): 1.3 µM

COc1ccc(NC(=C2C(=O)OC(C)(C)OC2=O)N(Cc2ccc(CC(C)(C)C)cc2)CC2(c3ccccc3)CCCC2)c(OC)c1 [Compound 10, 5-[[(2,4-Dimethoxyphenyl)amino][[[4-(2,2-dimethylpropyl)phenyl]methyl)][(1-penylcyclo-pentylmethyl]amino]methylene]-2,2-dimethyl-3-dioxane-4,6-dione]
% Inhibition (25 μM): 97% | IC50 (read-out: IC50): 0.29 µM

CCCCCC(C)N(Cc1ccc(CCC(C)C)cc1)C(Nc1ccc(N(C)C)cc1)=C1C(=O)OC(C)(C)OC1=O (stereo not drawn) [Compound 57, 5-[[[4-(Dimethylamino)phenyl]amino][[[4-(3-methylbutyl)phenyl]methyl](1-methylhexyl)-amino]methylene]-2,2-dimethyl-1,3-dioxane-4,6-dione]
% Inhibition (25 μM): 96% | IC50 (read-out: IC50): 0.41 µM

COc1ccc(NC(=C2C(=O)OC(C)(C)OC2=O)N(Cc2ccc(CC(C)C)cc2)[C@@H](CO)Cc2ccccc2)c(OC)c1 [Compound 12, (R)-5-[[(2,4-Dimethoxyphenyl)amino][[(1R)1-(hydroxymethyl)-2-phenylethyl][[4-(2-methyl-propyl)phenyl]methyl]amino]methylene]-2,2-dimethyl-1,3-dioxane-4.6-dione]
% Inhibition (25 μM): 96%

CCCCCCCCCCN(Cc1ccc(C(C)(C)C)cc1)C(Nc1ccc(OC)cc1OC)=C1C(=O)OC(C)(C)OC1=O [Compound 65]
% Inhibition (25 μM): 98% | IC50 (read-out: IC50): 2.3 µM

CCCCCC(C)N(Cc1ccc(OCC(C)C)cc1)C(Nc1ccc(N(C)C)cc1)=C1C(=O)OC(C)(C)OC1=O (stereo not drawn) [Compound 63]
% Inhibition (25 μM): 99% | IC50 (read-out: IC50): 0.09 µM

CCCCCCCN(Cc1ccc(C(C)(C)C)cc1)C(Nc1ccc(C(F)(F)F)cc1)=C1C(=O)OC(C)(C)OC1=O [Compound 30, 5-[[[[4-(1,1-Dimethylethyl)phenyl]methyl]heptylamino][[4-(trifluoromethyl)phenyl]amino]-methylene]-2,2-dimethyl-1,3-dioxane-4,6-dione]
% Inhibition (25 μM): 42%
